{"source": "patent US20260007624A1", "about": "“COMPOSITION FOR AMELIORATING OR TREATING CANCER CACHEXIA […] LACTATE AS ACTIVE INGREDIENT” (METIMEDI PHARMACEUTICALS CO., LTD., priority 2022, published 2026)", "key": {"[1]": {"assay": "Tissue pharmacokinetics (lactate concentration in muscle and tumor tissue)", "format": "in vivo, Balb/c nude mice", "settings": "HCT-116 tumor mice, 20 mg/kg S.C.", "method": "Balb/c nude mice were obtained and 1×10^6 HCT-116 was implanted subcutaneously to grow tumors. […] Each obtained tissue was analyzed for changes in lactate concentration over time using a lactate analysis kit."}, "[2]": {"system": "Hif-1α", "assay": "Western blot of Hif-1α expression in cancer cells", "format": "cell-based", "settings": "for Hif-1α expression: hypoxia 1% O2, FIG. 4", "method": "Then, Hif-1α antibody was diluted in TBST and attached to the protein on the membrane, washed with TBST, and treated with secondary antibody, and the band results were confirmed using X-ray film or Gel doc equipment."}, "[3]": {"system": "metastatic colorectal cancer refractory to standard therapy", "assay": "Phase II clinical trial of calcium lactate (cachexia, tumor response, survival, safety)", "format": "in vivo, patients", "set-up": "key to Overall tumor response: SD means that tumor growth has stopped; PD means that the tumor has increased by 20% or more", "method": "The clinical study was a phase II clinical trial targeting patients with metastatic colorectal cancer refractory to standard therapy.\nTwenty-two patients were enrolled, and 16 completed the trial (see Table 1).\nThe administration method was subcutaneous injection, and the administration dose was 100 mg/day. One cycle consisted of 4 weeks of treatment with 5 days of I.P. administration subcutaneously once daily followed by 2 days of rest.\nTumor assessment was performed every 2 cycles compared to baseline.\nThe clinical outcomes were the primary outcome of disease control rate, and the secondary outcomes were overall survival, progression-free survival, and safety. Body weight was measured 1 month after the start of administration and expressed as the increase or decrease in body weight before and after administration. Tumor response was performed with a CT scan 2 months after the start of administration and expressed as the increase or decrease in tumor size before and after administration. SD means that tumor growth has stopped, and PD means that the tumor has increased by 20% or more.\nBMI and Weight TO were measured at the screening visit, and Weight T1mo and SLD changes in the target lesion were measured 1 and 2 months after IP administration, respectively. SLD is an abbreviation for sum of longest diameters. SD and PD are abbreviations for stable disease and progressive disease, respectively."}, "[4]": {"system": "colon cancer cell line HCT-116", "assay": "Cytotoxicity assay, colon cancer cells", "format": "cell-based", "settings": "HCT-116, 48 hours, FIG. 2 lower panel", "method": "5×10^3 of normal colon fibroblast cell line CCD-18Co or colon cancer cell line HCT-116 were cultured in a 96-well plate at 37° C., 5% CO2. Incubator and observed under a microscope after 48 hours."}, "[5]": {"settings": "8 patients with weight loss including cachexia"}, "[6]": {"settings": "of 16 patients who completed the trial"}}, "note": "“And” between values parts separate entries of the source, which are not always exact repeats. Equal values may be shown once."}
{"smiles": "CC(O)C(=O)[O-].CC(O)C(=O)[O-].[Ca+2]", "note": "(stereo not drawn) [calcium lactate]", "values": [{"measurement": "concentration of lactate in muscle tissue", "setting": "[1]", "result": "no change"}, {"measurement": "concentration of lactate in tumor tissues", "setting": "[1]; 2 hours after administration", "result": "increases"}, {"measurement": "Hif-1α expression", "setting": "[2]; AsPC-1 (pancreatic cancer)", "result": "reduced"}, {"measurement": "Hif-1α expression", "setting": "[2]; H1975 (lung cancer)", "result": "reduced"}, {"measurement": "Hif-1α expression", "setting": "[2]; HCT-116 (colon cancer)", "result": "reduced"}, {"measurement": "Hif-1α expression", "setting": "[2]; MDA-MB-231 (breast cancer)", "result": "reduced"}, {"measurement": "expression of Hif-1α protein", "setting": "[2]; colon cancer cells, hypoxia, FIG. 3 upper panel", "result": "reduced"}, {"measurement": "efficacy of preventing patients from cachexia", "setting": "[3]; 2 out of 16 patients progressed to cancerous cachexia", "result": 87.5, "unit": "%"}, {"measurement": "median overall survival", "setting": "[3]; 8 patients with maintained or increased weight", "result": 8, "unit": "months"}, {"measurement": "median increase in tumor size", "setting": "[3]; [5]", "result": 17, "unit": "%"}, {"measurement": "median overall survival", "setting": "[3]; [5]", "result": 4.15, "unit": "months"}, {"measurement": "median increase in tumor size", "setting": "[3]; 8 patients with weight maintenance or increase", "result": 9.5, "unit": "%"}, {"measurement": "disease control rate", "setting": "[3]; 16 patients", "result": 68.75, "unit": "%"}, {"measurement": "drug efficacy for tumor growth arrest", "setting": "[3]; 16 patients, metastatic stage", "result": 68.8, "unit": "%"}, {"measurement": "Overall survival", "setting": "[3]; individual patient", "result": "2.4 months and 4.4 months and 6 months and 14.9 months and 7.6 months and 2.7 months and 3.6 months and 7.9 months and 23 months and 8.1 months and 5.1 months and 6.3 months and 16.7 months and 25.8 months"}, {"measurement": "SLD change at target lesions", "setting": "[3]; individual patient, CT scan 2 months after start, RECIST 1.1", "result": "12.5% and 10.8% and 15.7% and 12.6% and 9.1% and 34.7% and 17.7% and 29.0% and −2.9% and 129.2% and 3.3% and 15.6% and 10.0% and 18.4% and 2.2% and 6.2%"}, {"measurement": "Overall tumor response", "setting": "[3]; individual patient, RECIST 1.1", "result": "SD (11×) and PD (PD means that the tumor has increased by 20% or more) (5×)"}, {"measurement": "Weight change", "setting": "[3]; individual patient, screening to 1 month of treatment, 100 mg/day subcutaneous", "result": "1.4% (3×) and −4.6% and 1.1% and 6.0% and −1.3% and −3.6% and 0.0% and −6.7% and −3.4% and 3.4% and −4.9% and 10.6% and −0.8%"}, {"measurement": "Cachexia, % of patients", "setting": "[3]; [6]", "result": 12.5, "unit": "%"}, {"measurement": "Cachexia, number of patients", "setting": "[3]; [6]", "result": 2}, {"measurement": "Weight gain (maintained or increased weight), number of patients", "setting": "[3]; [6]", "result": 8}, {"measurement": "Weight gain, % of patients", "setting": "[3]; [6]", "result": 50.0, "unit": "%"}, {"measurement": "Weight loss (not corresponding to cachexia), number of patients", "setting": "[3]; [6]", "result": 6}, {"measurement": "Weight loss, % of patients", "setting": "[3]; [6]", "result": 37.5, "unit": "%"}, {"measurement": "number of patients with stable disease", "setting": "[3]; out of 16 patients", "result": 11}, {"measurement": "DLT (dose limiting toxicity)", "setting": "[3]; phase 2 clinical trials", "result": "Non-DLT"}, {"measurement": "effect on survival in colorectal cancer cells", "setting": "[4]", "result": "cancer cell death can be observed"}]}
